In patent US6472213B1, “Shuttle vectors for the introduction of DNA into mycobacteria and utilization of such bacteria as vaccines” (Institut National de la Sante et de la Recherche Medicale …, priority 1994, dated 2002):

How the values were obtained:
Assay type in all cases: cell-based, M. smegmatis, M. bovis BCG, M. tuberculosis
[1] = test system: non-transformed control mycobacteria
[2] = test system: mycobacteria carrying the plasmid pMR001
[3] = test system: pVN2-carrying mycobacteria

## [Cl][Hg][Cl] [HgCl2]
[1]
  Phenotypes of resistance to mercury: S
[2]
  Phenotypes of resistance to mercury: R
[3]
  Phenotypes of resistance to mercury: R
  level of resistance: 40 mg/mL
